In publication PMC7904743, “WIDOCK: a reactive docking protocol for virtual screening of covalent inhibitors” (Journal of Computer-Aided Molecular Design, 2021):
Read-outs that look alike come from different tables or passages of the source.

Assays:
[1] = biological target: T1, Recombinant human microsomal MAO-A (Homo sapiens, UniProt P21397); test: MAO-A activity assay (fluorimetric, Amplex Red, p-tyramine); type: biochemical; details: for RA: MAO-A residual activity, active if lower than 60%; for MAO-A inhibition (experimental): MAO-A inhibitory assay
T1 construct: purchased Sigma Aldrich; host or cells: baculovirus infected insect cells (BTI-TN-5B1-4)
T1 sequence (P21397 1-527): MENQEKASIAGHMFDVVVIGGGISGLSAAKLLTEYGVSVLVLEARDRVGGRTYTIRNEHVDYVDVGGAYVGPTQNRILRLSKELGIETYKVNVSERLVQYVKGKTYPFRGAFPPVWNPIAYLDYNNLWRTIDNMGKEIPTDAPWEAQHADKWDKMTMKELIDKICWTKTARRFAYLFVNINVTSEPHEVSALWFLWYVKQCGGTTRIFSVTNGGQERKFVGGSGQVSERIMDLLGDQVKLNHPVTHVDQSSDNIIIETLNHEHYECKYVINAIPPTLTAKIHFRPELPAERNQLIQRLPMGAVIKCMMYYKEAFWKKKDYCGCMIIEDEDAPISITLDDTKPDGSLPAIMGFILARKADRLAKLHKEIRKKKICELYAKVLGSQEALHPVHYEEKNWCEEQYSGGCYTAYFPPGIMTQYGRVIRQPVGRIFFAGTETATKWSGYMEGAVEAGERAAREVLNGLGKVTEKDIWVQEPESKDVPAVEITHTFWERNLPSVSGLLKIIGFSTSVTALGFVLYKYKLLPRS
Protocol: The effects of the test compounds on MAO-A were investigated using a fluorimetric assay, following a previously described methodology. The inhibitory activity of the compounds was evaluated by their effects on the production of hydrogen peroxide (H2O2) from p-tyramine. The production of H2O2 was detected using Amplex Red reagent in the presence of horseradish peroxidase, where a highly sensitive fluorescent product, resorufin, is produced at stoichiometric amounts. Recombinant human microsomal MAO-A enzyme expressed in baculovirus infected insect cells (BTI-TN-5B1-4), horse-radish peroxidase (type II, lyophilized powder), and p-tyramine hydrochloride were obtained from Sigma Aldrich. 10-Acetyl-3,7-dihydroxyphenoxazine (Amplex Red reagent) was synthesized as described in the literature.
Briefly, 100 µL 50 mM sodium phosphate buffer (pH 7.4, 0.05% Triton X-114) containing the compounds and MAO-A were incubated for 30 min at 37 °C in a flat-bottomed black 96-well microplate, and placed in a dark microplate reader chamber. After the pre-incubation, the reaction was started by adding the final concentrations of 200 µM Amplex Red reagent, 2 U/mL horseradish peroxidase, and 1 mM p-tyramine (final volume, 200 µL). The production of resorufin was quantified based on the fluorescence generated (λex = 530 nm, λem = 590 nm) at 37 °C over a period of 30 min, during which time the fluorescence increased linearly. For control experiments, DMSO was used instead of the appropriate dilutions of the compounds in DMSO. To determine the blank value (b), phosphate-buffered solution replaced the enzyme solution. The initial velocities were calculated from the trends obtained, with each measurement carried out in duplicate. The specific fluorescence emission to obtain the final result was calculated after subtraction of the blank activity (b).

MurA [2] = biological target: T2, MurA (Escherichia coli, UniProt P0A749); test: biochemical; details: read-out: RA
Protocol: (§1) These fragments were measured in single point enzyme activity assays at 100 μM concentration against MurA and CatB.

CatB [3] = biological target: T3, CatB (Homo sapiens, UniProt P07858); parameters: method as in PMID 30321804; details: cited from earlier work; for CatB RA (%): residual activity at 100 μM, single point; for experimental activity class against CatB: < 60% residual activity at 100 μM considered active
CatB [4] = biological target: T3, CatB; test: CatB single point enzyme activity assay (residual activity); details: read-out: RA
Protocol: as §1

MurA [5] = biological target: T2, MurA; details: cited from earlier work; for MurA RA (%): residual activity at 100 μM, single point; for experimental activity class against MurA: < 60% residual activity at 100 μM considered active
[6] = cited from earlier work
[7] = Kinetic measurement of adduct formation with L-glutathione (GSH) by HPLC–MS; type: physicochemical; parameters: unit not given here
Protocol: Electrophilic fragments tested against MurA, CatB and MAO-A (25–53, structures shown in Supporting Figure S2 and SMILES provided in Supporting Table S1) represent eight different warhead chemotypes reacting via two reaction mechanisms: Michael-type nucleophilic addition and nucleophilic substitution. The intrinsic thiol reactivities (see Table 1) were determined by kinetic measurement of adduct formation with L-glutathione (GSH), a widely used cysteine surrogate, by an HPLC–MS methodology, as described in the referred study.

[8] = half-life of adduct formation with L-glutathione

T2 sequence (P0A749 whole entry): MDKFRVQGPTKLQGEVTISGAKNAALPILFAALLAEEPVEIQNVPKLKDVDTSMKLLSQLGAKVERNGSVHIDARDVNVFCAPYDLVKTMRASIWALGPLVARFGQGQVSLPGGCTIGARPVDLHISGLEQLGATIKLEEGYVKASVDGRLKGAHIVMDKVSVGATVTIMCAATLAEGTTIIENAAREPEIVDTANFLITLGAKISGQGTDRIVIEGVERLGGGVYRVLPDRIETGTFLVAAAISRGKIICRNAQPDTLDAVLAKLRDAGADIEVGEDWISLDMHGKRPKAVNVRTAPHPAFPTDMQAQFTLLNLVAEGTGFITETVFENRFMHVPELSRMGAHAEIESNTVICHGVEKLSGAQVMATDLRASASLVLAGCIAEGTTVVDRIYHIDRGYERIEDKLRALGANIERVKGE

| SMILES | RA [1] | remaining activity at 100 µM (MurA [2]) | CatB RA (%) (CatB [3]) | remaining activity at 100 µM (CatB [4]) | MurA RA (%) (MurA [5]) | GSH half-life [6, 8] | Reactivity, Experimental ln(k) vs GSH [7] | lnk ([6]; […]) | MAO-A inhibition (experimental) [1] | experimental activity class against MurA (MurA [5]) | experimental activity class against CatB (CatB [3]) | GSH half-life ([6]; buffer) |
| --- | --- | --- | --- | --- | --- | --- | --- | --- | --- | --- | --- | --- |
| COC(=O)/C=C/C(=O)OC [Compound 25, COC(=O)/C=C/C(=O)OC] | 80% | 50% | 106% | 106% | 50% |  |  |  |  |  |  |  |
| C/C=C/C(=O)OC [Compound 26, C/C=C/C(=O)OC] | 68% | 41% | 97% | 97% | 41% | 20.8 h | -3.401 |  |  |  |  |  |
| CCOC(=O)/C=C/c1ccccc1 [Compound 27, CCOC(=O)/C=C/c1ccccc1] | 97% | 92% | 79% | 79% | 92% | 48.2 h | -4.242 |  |  |  |  |  |
| C=CC(=O)N(C)C [Compound 29, C=CC(=O)N(C)C] | 75% | 95% | 75% | 75% | 95% | 127 h | -5.211 |  |  |  |  |  |
| C=CC(=O)Nc1ccccc1 [Compound 30, C=CC(=O)Nc1ccccc1] | 99% | 78% | 88% | 88% | 78% |  |  |  |  |  |  |  |
| C=CS(=O)(=O)c1ccccc1 [Compound 34, C=CS(=O)(=O)c1ccccc1] | 52% | 12% | 87% | 87% | 12% |  |  | 1.45 |  |  |  |  |
| O=S(=O)(/C=C/c1ccccc1)c1ccccc1 [Compound 35, O=S(=O)(/C=C/c1ccccc1)c1ccccc1] | 87% | 82% | 77% | 77% | 82% | 94.3 h | -4.913 |  |  |  |  |  |
| CCOC(=O)C#Cc1ccccc1 [Compound 36, CCOC(=O)C#Cc1ccccc1] | 94% | 75% | 70% | 70% | 75% | 4.66 h | -1.906 |  |  |  |  |  |
| CC#CC(=O)OCC [Compound 37, CC#CC(=O)OCC] | 84% | 82% | 84% | 84% | 82% | 16.9 h | -3.194 |  |  |  |  |  |
| CN1C(=O)C=CC1=O [Compound 38, CN1C(=O)C=CC1=O] | 5% | 1% | 91% | 91% | 1% | < 0.1 h | 1.936 |  |  |  |  |  |
| O=C1C=CC(=O)N1Cc1ccccc1 [Compound 39, O=C1C=CC(=O)N1Cc1ccccc1] | 0% | 2% | 87% | 87% | 2% | < 0.1 h | 1.936 |  | active |  |  |  |
| O=C1C=CC(=O)N1C1CCCCC1 [Compound 40, O=C1C=CC(=O)N1C1CCCCC1] | 3% | 1% | 89% | 89% | 1% | < 0.1 h | 1.936 |  |  |  |  |  |
| O=C1C=CC(=O)N1c1ccccc1 [Compound 41, O=C1C=CC(=O)N1c1ccccc1] | 1% | 0.8% | 82% | 82% | 1% | < 0.1 h | 1.936 |  |  | experimental MurA actives |  |  |
| CC(C)(C)OC(=O)N1CC=CC1=O [Compound 42, CC(C)(C)OC(=O)N1CC=CC1=O] | 47% | 92% | 85% | 85% | 92% | 161 h | -5.449 |  |  |  |  |  |
| O=C1C=CCO1 [Compound 43, O=C1C=CCO1] | 99% | 75% | 99% | 99% | 75% | 194 h | -5.634 |  |  |  |  |  |
| O=C(CBr)c1ccc(-c2ccccc2)cc1 [Compound 44, O=C(CBr)c1ccc(-c2ccccc2)cc1] | 14% | 0.1% | 0% | 0.1% | 0% | < 0.1 h | 1.936 |  |  |  | experimental actives |  |
| O=C(CBr)c1ccccc1 [Compound 45, O=C(CBr)c1ccccc1] | 39% | 2% | 27% | 27% | 2% |  | 1.936 |  | found to inhibit MAO-A activity |  |  | < 0.1 h |
| COc1ccccc1C(=O)CBr [Compound 46, COc1ccccc1C(=O)CBr] | 39% | 3% | 55% | 55% | 3% | < 0.1 h | 1.936 |  |  | experimental MurA actives | experimental actives |  |
| Cc1ccccc1NC(=O)CCl [Compound 47, Cc1ccccc1NC(=O)CCl] | 78% | 83% | 86% | 86% | 83% | 326 h | -6.153 |  |  |  |  |  |
| O=C(CCl)Nc1ccccc1 [Compound 48, O=C(CCl)Nc1ccccc1] | 95% | 110% | 88% | 88% | 110% |  |  |  |  |  |  |  |
| CC(Br)C(=O)Nc1cc(C(F)(F)F)cc(C(F)(F)F)c1 (stereo not drawn) [Compound 50, CC(Br)C(=O)Nc1cc(C(F)(F)F)cc(C(F)(F)F)c1] | 83% | 35% | 91% | 91% | 35% | 95.2 h | -4.922 |  |  |  |  |  |
| COc1cc(NC(=O)CCl)cc(OC)c1 [Compound 51, COc1cc(NC(=O)CCl)cc(OC)c1] | 69% | 61% | 87% | 87% | 61% | 22.9 h | -3.498 |  |  |  |  |  |
